Results on 5 compounds are retold here after patent publication US10227331B2 (priority 2015, dated 2019).

The test system of data set [1] is P. aeruginosa expressing IMP-1, efflux− (MB9799). As to the kind of experiment: Efflux: concentration of MBL inhibitor which restores susceptibility to imipenem. It counts as cell-based, Pseudomonas aeruginosa. The settings on record: imipenem at 2 μg/mL, in the presence of a class A, C, D serine β-lactamase inhibitor closely related to relebactam. An excerpt: (§1) The strain background is Pseudomonas aeruginosa PAO1.

The subject of data set [2] is P. aeruginosa expressing IMP-1, efflux+ (MB9798). The format is cell-based, Pseudomonas aeruginosa. The settings on record: for P. aeruginosa expressing IMP-1, efflux+ (MB9798) MITC95: imipenem at 2 μg/mL, in the presence of a class A, C, D serine β-lactamase inhibitor closely related to relebactam; for Efflux ratio: ratio MITC95 PA_9798/MITC95 PA_9799.
Description: as §1

Data set [3] has as its target IMP-1 (Serratia marcescens, UniProt P52699). The experiment in a line: biochemical. It counts as biochemical. The method in brief: (§2)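 Semi-log dose-response curves, fitted with a 4-parameter model, gave IC50s. The underlying signal was CCF2-FA fluorescence following 2 hours at 25° C with enzyme, substrate and inhibitor combined.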
For data set [4], the target named is NDM-1 (Klebsiella pneumoniae, UniProt C7C422). As to the kind of experiment: biochemical. The format is biochemical. The settings on record: CCF2-FA substrate, 2 hours at 25° C; read-out: NDM-1 IC50. The method in brief: as §2
Chain of NDM-1 (C7C422 whole entry, looked up, species assumed): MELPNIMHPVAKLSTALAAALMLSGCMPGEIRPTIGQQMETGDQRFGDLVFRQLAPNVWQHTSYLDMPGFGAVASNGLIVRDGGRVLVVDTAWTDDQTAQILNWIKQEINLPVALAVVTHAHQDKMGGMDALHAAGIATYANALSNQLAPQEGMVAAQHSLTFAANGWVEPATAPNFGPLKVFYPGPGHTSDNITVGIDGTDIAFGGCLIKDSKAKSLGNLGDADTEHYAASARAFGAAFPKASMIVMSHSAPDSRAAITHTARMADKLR
The subject of data set [5] is Serratia marcescens expressing IMP-1 (CL5741). It counts as cell-based. The settings on record: with imipenem 1 μg/ml, 95% inhibition of bacterial growth. Summed up:
(§3)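 Restoration of imipenem susceptibility (1 μg/ml imipenem) was judged by absorbance after 22–24 h at 35° C. Test compound was added to bacteria suspended 1:100 in 1.1× CAMHB from overnight blood-agar cultures.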

The subject of data set [6] is Klebsiella pneumoniae expressing VIM-1 (IHMA599644). It counts as cell-based. The settings on record: with imipenem 1 μg/ml, 95% inhibition of bacterial growth. Summed up:
as §3

The test system of data set [7] is Escherichia coli expressing NDM-1 (CLB30005, CLB30016). It counts as cell-based. The settings on record: with imipenem 1 μg/ml, 95% inhibition of bacterial growth. Summed up:
as §3

Data set [8] has as its target VIM-1 (Pseudomonas aeruginosa (strain ATCC 15692 / DSM 22644 / CIP 104116 / JCM 14847 / LMG 12228 / 1C / PRS 101 / PAO1), UniProt A0A0F7KYQ8). As to the kind of experiment: biochemical. The settings on record: CCF2-FA substrate, 2 hours at 25° C. Summed up: as §2
The mark [9] stands for this setting: CCF2-FA substrate, 2 hours at 25° C, read-out: IMP-1 IC50.

Read-outs that look alike come from different tables or passages of the source.

Chain of IMP-1 (P52699 whole entry, looked up, species assumed): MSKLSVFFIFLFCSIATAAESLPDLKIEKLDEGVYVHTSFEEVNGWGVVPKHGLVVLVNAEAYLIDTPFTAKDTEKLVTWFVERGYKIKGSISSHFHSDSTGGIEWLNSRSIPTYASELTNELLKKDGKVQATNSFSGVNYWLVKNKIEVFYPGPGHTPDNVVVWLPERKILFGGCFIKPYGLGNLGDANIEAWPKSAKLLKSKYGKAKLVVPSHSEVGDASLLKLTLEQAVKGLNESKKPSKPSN

Regarding `NCCS(=O)(=O)c1ccc(-c2cnc3[nH]ccc3c2)c(-c2nnn[nH]2)c1S(N)(=O)=O.O=C(O)C(F)(F)F` [Example 149, 2-((4-(1H-pyrrolo[2,3-b]pyridin-5-yl)-2-sulfamoyl-3-(1H-tetrazol-5-yl)phenyl)sulfonyl)ethanaminium 2,2,2-trifluoroacetate], in data set [1], the “P. aeruginosa expressing IMP-1, efflux− (MB9799) MITC95” value was determined as 0.7813 µM. The “P. aeruginosa expressing IMP-1, efflux+ (MB9798) MITC95” value in data set [2] was found to be 6.25 µM. Besides, the Efflux ratio in data set [2] is 8.00. In addition, the results for the IC50 in data set [3] (setting [9]), in data set [4] and in data set [8] were 0.856 nM, 0.534 nM and 0.185 nM, respectively. Also, the “Serratia marcescens expressing IMP-1 (CL5741) MITC95” value in data set [5] came out at 3.125 µM. The “Klebsiella pneumoniae expressing VIM-1 (IHMA599644) MITC95” value in data set [6] is 3.125 µM. Moreover, in data set [7], the “Escherichia coli expressing NDM-1 (CLB30016) MITC95” value was determined as 1.563 µM.

On to `NCCS(=O)(=O)c1ccc(-c2cccc3oc(N)nc23)c(-c2nn[nH]n2)c1S(N)(=O)=O` [Example 76, 3-(2-aminobenzo[d]oxazol-4-yl)-6-(2-aminoethylsulfonyl)-2-(2H-tetrazol-5-yl)benzenesulfonamide], for which the “P. aeruginosa expressing IMP-1, efflux− (MB9799) MITC95” value in data set [1] amounted to 0.7813 µM. Besides, the “P. aeruginosa expressing IMP-1, efflux+ (MB9798) MITC95” value in data set [2] came to 0.7813 µM. Further, the Efflux ratio in data set [2] is recorded as 1.00. Moreover, the IC50 turned out to be 0.258 nM in data set [3], 0.148 nM in data set [4] and 0.24 nM in data set [8]. The “Serratia marcescens expressing IMP-1 (CL5741) MITC95” value in data set [5] worked out at 0.7813 µM. For the same compound, in data set [6], the “Klebsiella pneumoniae expressing VIM-1 (IHMA599644) MITC95” value turned out to be 1.563 µM. Besides, the “Escherichia coli expressing NDM-1 (CLB30016) MITC95” value in data set [7] turned out to be 0.7813 µM.

Take `C[C@H](CN)S(=O)(=O)c1ccc(-c2cccc3c2nc(N)n3C)c(-c2nn[nH]n2)c1S(N)(=O)=O` [Example 279, 3-(2-amino-1-methyl-1H-benzo[d]imidazol-4-yl)-6-((R)-1-aminopropan-2-ylsulfonyl)-2-(2H-tetrazol-5-yl)benzenesulfonamide]: the “P. aeruginosa expressing IMP-1, efflux− (MB9799) MITC95” value in data set [1] was 0.7813 µM. Besides, the “P. aeruginosa expressing IMP-1, efflux+ (MB9798) MITC95” value in data set [2] turned out to be 3.125 µM. The Efflux ratio in data set [2] is 4.00. Moreover, the figures for the IC50 in data set [3] (setting [9]), in data set [4] and in data set [8] were 0.695 nM, 0.806 nM and 0.47 nM, respectively. For the same compound, the “Serratia marcescens MITC95” value in data set [5] (IMP-1 (CL5741)) was determined as 1.563 µM. The “Klebsiella pneumoniae MITC95” value in data set [6] (VIM-1 (IHMA599644)) is 1.563 µM. In addition, the “Escherichia coli MITC95” value in data set [7] (NDM-1 (CLB30016)) turned out to be 0.3906 µM.

On to `N=C(N)Nc1ccccc1-c1ccc(S(=O)(=O)C2CNC2)c(S(N)(=O)=O)c1-c1nn[nH]n1` [Example 221, 4-(azetidin-3-ylsulfonyl)-2′-guanidino-2-(2H-tetrazol-5-yl)-[1,1′-biphenyl]-3-sulfonamide], for which the “P. aeruginosa expressing IMP-1, efflux− (MB9799) MITC95” value in data set [1] was determined as 3.125 µM. In data set [2], the “P. aeruginosa expressing IMP-1, efflux+ (MB9798) MITC95” value came to 50 µM. Moreover, the Efflux ratio in data set [2] is on record as 16.00. In addition, the IC50 was 44 nM in data set [3] (setting [9]), 5.13 nM in data set [4] and 6.95 nM in data set [8]. In data set [5], the “Serratia marcescens expressing IMP-1 (CL5741) MITC95” value was 12.5 µM. In data set [6], the “Klebsiella pneumoniae expressing VIM-1 (IHMA599644) MITC95” value turned out to be 12.5 µM. Further, the “Escherichia coli expressing NDM-1 (CLB30016) MITC95” value in data set [7] was determined as 6.25 µM.

For `CN1CC(S(=O)(=O)c2ccc(-c3cccc4[nH]c(N)nc34)c(-c3nn[nH]n3)c2S(N)(=O)=O)C1` [Example 52, 3-(2-amino-1H-benzo[d]imidazol-4-yl)-6-(1-methylazetidin-3-ylsulfonyl)-2-(2H-tetrazol-5-yl)benzenesulfonamide], in data set [1], the “P. aeruginosa expressing IMP-1, efflux− (MB9799) MITC95” value turned out to be 1.563 µM. In addition, the “P. aeruginosa expressing IMP-1, efflux+ (MB9798) MITC95” value in data set [2] was determined as 6.25 µM. Besides, the Efflux ratio in data set [2] came to 4.00. The IC50 was found to be 1.33 nM in data set [3] (setting [9]), 0.222 nM in data set [4] and 0.628 nM in data set [8]. In addition, the “Serratia marcescens expressing IMP-1 (CL5741) MITC95” value in data set [5] was 1.563 µM. The “Klebsiella pneumoniae expressing VIM-1 (IHMA599644) MITC95” value in data set [6] is 3.125 µM. The “Escherichia coli expressing NDM-1 (CLB30016) MITC95” value in data set [7] turned out to be 0.3906 µM.

As a reminder, the IC50 is the concentration that inhibits the measured activity by half.
